For assay [1], the target named is T1, purified HLA DRB3*0101 (Homo sapiens, UniProt P01903+P79483).
T1 construct: purified from EBV transformed homozygous cell lines or single MHC allele transfected 721.221, C1R, or fibroblast lines; made in house
Put plainly: HLA-DR radioligand binding inhibition assay, DRB3*0101. The conditions noted are these: IC50 nM purified HLA DRB3 *0101, purified HLA DRB3*0101. The procedure, abridged: (§1)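 HLA-DR-bound radioactivity was read by scintillation counting after LB3.1 antibody capture of HLA-DR/peptide complexes. Beforehand, 1-10 nM labeled peptide was incubated 2 days with 1 μM to 1 nM purified HLA-DR (room temperature or 37° C, pH 4-7, protease inhibitor cocktail) and competitor peptides at […], in 2-4 independent runs.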

Assay [2] deals with T2, purified HLA DRB1*0405 (Homo sapiens, UniProt P01903+P01911, A100R/A169T/D86S/F76Y/I96L/K127E/L162R/M171V/N62H/P40V/Q125Y/R42H/S133A/S149N/S66Y/V115G/V209L/W38E).
T2 construct: purified from EBV transformed homozygous cell lines or single MHC allele transfected 721.221, C1R, or fibroblast lines; made in house
Put plainly: HLA-DR radioligand binding inhibition assay, DRB1*0405. Conditions: IC50 nM purified HLA DRB1 *0405, purified HLA DRB1*0405. The gist of the method: (§2)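 First, HLA-DR was purified from lysates on LB3.1 columns. Then 1 μM to 1 nM protein was incubated 2 days with 1-10 nM radiolabeled peptide at pH 4 to 7. Finally, complexes were captured for 3 hours and bound cpm determined.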

Assay [3] addresses T3, purified HLA DRB1*1101 (Homo sapiens, UniProt P01903+P01911, A100R/A169T/A87E/I96F/K41T/L162R/M171V/P40S/Q125H/Q178H/Q39Y/Q99D/R42S/S66Y/T262R/V115G/W38E).
T3 construct: purified from EBV transformed homozygous cell lines or single MHC allele transfected 721.221, C1R, or fibroblast lines; made in house
Put plainly: HLA-DR radioligand binding inhibition assay, DRB1*1101. The conditions noted are these: IC50 nM purified HLA DRB1 *1101, purified HLA DRB1*1101. The gist of the method:
as §2

The target of assay [4] is T4, purified HLA DRB1*0404 (Homo sapiens, UniProt P01903+P01911, A100R/A169T/F76Y/I96L/K127E/L162R/M171V/N62H/P40V/Q125Y/R42H/S133A/S149N/S66Y/V209L/W38E).
T4 construct: purified from EBV transformed homozygous cell lines or single MHC allele transfected 721.221, C1R, or fibroblast lines; made in house
Put plainly: HLA-DR radioligand binding inhibition assay, DRB1*0404. Conditions: IC50 nM purified HLA DRB1 *0404, purified HLA DRB1*0404. The gist of the method:
as §2

In assay [5] the target is T5, purified HLA DRB1*0701 (Homo sapiens, UniProt P01903+P01911, A100R/A102G/A103Q/D57E/D86V/E43K/F76Y/K127E/L162R/M171V/P40G/Q125H/Q99D/R33Q/R42Y/R54Q/S133A/S66F/T210M/V115G/Y107V/Y59L/Y89S).
T5 construct: purified from EBV transformed homozygous cell lines or single MHC allele transfected 721.221, C1R, or fibroblast lines; made in house
Put plainly: HLA-DR radioligand binding inhibition assay, DRB1*0701. Conditions: IC50 nM purified HLA DRB1 *0701, purified HLA DRB1*0701. The gist of the method: as §2

For assay [6], the target named is T6, purified HLA DRB1*0802 (Homo sapiens, UniProt P01903+P01911, A100R/A103L/A169T/F76Y/H45Y/I96F/K41T/L162R/M171V/P40S/Q125H/Q178H/Q39Y/Q99D/R218S/R42G/S66Y/V115G/W38E).
T6 construct: purified from EBV transformed homozygous cell lines or single MHC allele transfected 721.221, C1R, or fibroblast lines; made in house
Put plainly: HLA-DR radioligand binding inhibition assay, DRB1*0802. The conditions noted are these: IC50 nM purified HLA DRB1 *0802, purified HLA DRB1*0802. The method, then: (§3) Instead, wells of an opaque white 96-well Optiplate (Packard) are coated with 3 μg (100 μl@ 30 μg/ml) of HLA-specific antibody (Ab) that “capture” complexes of radiolabeled MHC and unlabeled peptide transferred from the molecular binding assay plate in 100 μl of 0.05% NP40/PBS. After a 3-hour incubation period, the supernatant is decanted and scintillation fluid (Microscint 20) added. Captured complexes are then measured on a microplate scintillation and luminescence counter (TopCount NXTTM; Packard).
HLA-DR purification. Fifteen distinct HLA-DR molecules were used in quantitative assays to measure the binding of peptides to solubilized HLA-DR molecules. […] Briefly, columns of inactivated Sepharose CL4B and Protein A Sepharose were used as pre-columns. HLA-DR molecules were captured by passage of lysates over LB3.1 monoclonal antibody (anti-HLA-DRA) columns. Antibody columns were washed with 10 mM Tris-HCL, pH8.0 with 1% (v/v) NP-40, followed by PBS containing 0.4% (w/v) n-octylglucoside. […] The pH was reduced to 8.0 and the eluates were concentrated by centrifugation in Centriprep 30 concentrators at 2000 rpm (Amicon, Beverly, Mass.).
Briefly, 1-10 nM of radiolabeled peptide was co-incubated for 2 days at either room temperature or 37° C. with 1 μM to 1 nM purified HLA-DR molecules in the presence of a cocktail of protease inhibitors. Assays were performed at various pH conditions, ranging from pH 4 to pH 7. […] After incubation, the percentage of HLA-DR-bound radioactivity is determined by capturing HLA-DR/peptide complexes on Optiplates (Packard Instruments, Meriden, Conn.) coated with the LB3.1 antibody and determining bound counts per minute using the TopCount microscintillation counter (Packard Instruments). […] Competitor peptides are tested in 2-4 complete, independent experiments, at concentrations ranging from […].

Assay [7] concerns the target T7, purified HLA DRB1*1201 (Homo sapiens, UniProt P01903+P01911, A100R/A169T/D57E/D86V/F55L/H45Y/K41T/L162R/M171V/P40S/Q125H/Q178H/Q39Y/Q99D/R42G/S66L/T262R/V114A/V67L/W38E/Y59H/Y61H/Y89S).
T7 construct: purified from EBV transformed homozygous cell lines or single MHC allele transfected 721.221, C1R, or fibroblast lines; made in house
Description: HLA-DR radioligand binding inhibition assay, DRB1*1201. The gist of the method:
as §1

In assay [8] the target is T8, purified HLA DRB1*1302 (Homo sapiens, UniProt P01903+P01911, A100E/A169T/K41T/L162R/M171V/P40S/Q125H/Q178H/Q39Y/Q99D/R42S/S66N/T262R/V115G/W38E/Y61H).
T8 construct: purified from EBV transformed homozygous cell lines or single MHC allele transfected 721.221, C1R, or fibroblast lines; made in house
Put plainly: HLA-DR radioligand binding inhibition assay, DRB1*1302. The gist of the method: as §2

In assay [9] the target is T9, purified HLA DRB1*0901 (Homo sapiens, UniProt P01903+P01911, A100R/A103E/D57H/D86V/F55Y/F60I/F76Y/I96F/K127E/L162R/M171V/P40D/Q125H/Q99R/R33Q/R42F/S133A/S66N/T210M/V115G/W38K/Y107V/Y59G/Y89S).
T9 construct: purified from EBV transformed homozygous cell lines or single MHC allele transfected 721.221, C1R, or fibroblast lines; made in house
Description: HLA-DR radioligand binding inhibition assay, DRB1*0901. Conditions: IC50 nM purified HLA DRB1 *0901, purified HLA DRB1*0901. The method, then:
as §3
HLA-DR purification. Fifteen distinct HLA-DR molecules were used in quantitative assays to measure the binding of peptides to solubilized HLA-DR molecules. […] Briefly, columns of inactivated Sepharose CL4B and Protein A Sepharose were used as pre-columns. HLA-DR molecules were captured by passage of lysates over LB3.1 monoclonal antibody (anti-HLA-DRA) columns. Antibody columns were washed with 10 mM Tris-HCL, pH8.0 with 1% (v/v) NP-40, followed by PBS containing 0.4% (w/v) n-octylglucoside.
Briefly, 1-10 nM of radiolabeled peptide was co-incubated for 2 days at either room temperature or 37° C. with 1 μM to 1 nM purified HLA-DR molecules in the presence of a cocktail of protease inhibitors. Assays were performed at various pH conditions, ranging from pH 4 to pH 7. […] After incubation, the percentage of HLA-DR-bound radioactivity is determined by capturing HLA-DR/peptide complexes on Optiplates (Packard Instruments, Meriden, Conn.) coated with the LB3.1 antibody and determining bound counts per minute using the TopCount microscintillation counter (Packard Instruments).

Assay [10] has as its target T10, purified HLA DRB1*1501 (Homo sapiens, UniProt P01903+P01911).
T10 construct: purified from EBV transformed homozygous cell lines or single MHC allele transfected 721.221, C1R, or fibroblast lines; made in house
Description: HLA-DR radioligand binding inhibition assay, DRB1*1501. The gist of the method: as §2

In assay [11] the target is T11, purified HLA DRB4*0101 (Homo sapiens, UniProt P01903+P13762, G164S).
T11 construct: purified from EBV transformed homozygous cell lines or single MHC allele transfected 721.221, C1R, or fibroblast lines; made in house
Put plainly: HLA-DR radioligand binding inhibition assay, DRB4*0101. The conditions noted are these: IC50 nM purified HLA DRB4 *0101, purified HLA DRB4*0101. The gist of the method: as §2

Usually IC50 stands for the concentration that inhibits the measured activity by half.

T3 sequence (P01903 26-254, other chains not shown): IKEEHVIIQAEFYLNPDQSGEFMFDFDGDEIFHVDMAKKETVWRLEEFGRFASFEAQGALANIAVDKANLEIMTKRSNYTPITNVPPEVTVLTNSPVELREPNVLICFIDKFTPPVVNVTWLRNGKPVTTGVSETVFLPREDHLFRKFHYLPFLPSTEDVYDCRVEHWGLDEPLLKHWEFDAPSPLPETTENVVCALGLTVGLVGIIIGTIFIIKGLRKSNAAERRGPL

Regarding `CC[C@H](C)[C@H](NC(=O)[C@H](CS)NC(=O)[C@H](CC(C)C)NC(=O)[C@H](CCCCN)NC(=O)[C@H](CCC(=O)O)NC(=O)[C@H](C)NC(=O)[C@@H](NC(=O)[C@H](CC(C)C)NC(=O)[C@@H]1CCCN1C(=O)[C@@H](NC(=O)[C@@H](N)[C@@H](C)O)[C@@H](C)CC)[C@@H](C)O)C(=O)N[C@@H](Cc1ccc(O)cc1)C(=O)N[C@H](C(=O)N[C@@H](CC(=O)O)C(=O)N[C@@H](CC(N)=O)C(=O)O)[C@@H](C)O` [Peptide 1622.01], the IC50 in assay [1], in assay [2], in [3], in assay [4], in assay [5] and in assay [6] was above 20000 nM each time. Moreover, the IC50 in assay [7], in [8] and in assay [9] was above 20000 nM each time.

Take `CSCC[C@H](NC(=O)CNC(=O)[C@H](CC(C)C)NC(=O)CNC(=O)[C@H](Cc1ccc(O)cc1)NC(=O)[C@@H](N)CS)C(=O)N[C@@H](CCC(=O)O)C(=O)N[C@@H](Cc1c[nH]cn1)C(=O)N[C@@H](CC(C)C)C(=O)N[C@@H](CCCNC(=N)N)C(=O)N[C@@H](CCC(=O)O)C(=O)N[C@H](C(=O)N[C@@H](CCCNC(=N)N)C(=O)N[C@@H](C)C(=O)N[C@H](C(=O)O)C(C)C)C(C)C` [Peptide 9019.0044]: the IC50 in [10] was 690 nM; in [11], 444 nM; in [1], above 20000 nM; in [2], 5120 nM; in [4], 493 nM; in [5], 271 nM. Further, the concentration for half-maximal inhibition (IC50) was above 20000 nM in [6], 19000 nM in [7] and above 20000 nM in assay [9].

The values above are taken from patent publication US20140377340A1, “HLA-DR BINDING PEPTIDES AND THEIR USES” (priority 2007, published 2014).
